Holding throughout (format): in vivo, mouse
Assay [1] deals with SPF C57BL/6 mice. As to the kind of experiment: Acetate, butyrate or propionate supplemented water for 8 weeks followed by lethal dose TBI. The source says: FIG. 11A is a schematic of short chain fatty acids (SCFAs) treatment. Survival rates (FIG. 11B) and clinical scores (FIG. 11C) were monitored for 30 days. Femurs and spleens were stained for H&E and quantified for BM cellularity and spleen EMH scores (FIG. 11D). White pulp (WP, black dash circles), red pulp (RP, area between black solid lines), and megakaryocytes (black arrows) are shown. […] Total CMP, GMP and MEP percentages of Lin^− cells are shown in the right histogram. Representative images are shown. Mucus layer is indicated by area between dash lines and crypt length is indicated by double-headed arrow. Mucus layer thickness and crypt length were quantified. Error bars show SEM, *p<0.05, **p<0.01, *** p<0.001 determined by log-rank (Mantel Cox) test (B), Mann-Whitney test for area under the curve (AUC) (C) and Student's t test (D, E, F).
SPF C57BL/6 mice were treated with acetate, butyrate or propionate supplemented water for 8 weeks respectively, followed by a lethal dose TBI (FIG. 11A). […] To examine the effect of propionate on the gastrointestinal system, Alcian blue and periodic acid-Schiff (AB/PAS) staining of all intracellular mucin glycoproteins within goblet cells was completed.

The subject of the next assay is SPF mice. As to the kind of experiment: Tryptophan metabolites treatment and lethal radiation. The note with it: lethal radiation, monitored 30 days. How it is done:
Metabolite profiles were measured in fecal samples of AM-Ctrl and ES mice at Day 290 post TBI. Total ion chromatogram (TIC) metabolomic cloudplot (p<0.01) (FIG. 14A) and PCA score plot (14B) show distinct metabolites separation between these two groups. […] In FIG. 14D, metabolic network graphs (MetaMapp) were generated to integrate the biochemical pathways and chemical relationships of all detected metabolites. Identified metabolites are represented by circle nodes, with lower transparency indicating lower p-values from Welch's t-test. Lighter grey nodes denote metabolites with higher abundance in ES group; darker grey nodes denote those higher in AM-Ctrl group. Solid grey lines connecting distinct metabolites symbolize KEGG reactant pair links; dashed grey lines symbolize chemical similarity with a Tanimoto coefficient score >0.7. Tryptophan metabolites are highlighted by a large shadow (labelled), while other metabolite families are distinguished by separate shadowed areas. FIG. 14E is a schematic of tryptophan metabolites treatment. Survival rates (FIG. 14F) and clinical scores (FIG. 14G) were monitored for 30 days. Error bars show SEM, *p<0.05, **p<0.01, ***p<0.001 determined by log-rank (Mantel Cox) test (FIG. 14F) and Mann-Whitney test for area under the curve (AUC) (FIG. 14G). […]

Assay [2] relates to SPF C57BL/6 mice. As to the kind of experiment: Butyrate contained water for 8 weeks followed by total body irradiation. The note with it: butyrate water 8 weeks, TBI; control recipients 43%. On the procedure:
Butyrate production was determined by Mass Spectrometry from Non-TBI controls versus LL-TBI survivors (FIG. 7A), Control Recipients versus Survivor Recipients from dirty cage sharing expt. as shown in FIG. 2A (FIG. 7B), Control Recipients versus Survivor Recipients from FMT in GF mice expt. as shown in FIG. 4A (FIG. 7C). FIG. 7D includes a schematic of butyrate treatment of 6-8 weeks SPF C57BL/6 mice. After 8 weeks of butyrate treatment, recipients received total body irradiation. Survival rates (FIG. 7E), clinical scores (FIG. 7F), body weight changes (FIG. 7G) and body temperatures (FIG. 7H) were monitored for 30 days post TBI. (Control Recipients, n=14; Butyrate Recipients, n=16).
It is well established that Clostridiales and Lachnospiraceae bacterial groups produce short chain fatty acids (SCFAs) via fermentation of dietary polysaccharides^32-34. SCFAs especially butyrate, which is the most commonly studied SCFA, are important substrates for maintaining intestinal epithelium and play a role in regulating immune system and inflammatory response. Increased abundance of Lachnospiraceae is expected to enhance the capability to produce SCFAs. To validate this hypothesis, the concentrations of lactate, propionate, isobutyrate and butyrate were detected in each individual Lachnospiraceae strain within the disclosed 23 stains pool. […]

On to `CCC(=O)O` [propionate], for which the bone marrow cellularity result in the assay with SPF C57BL/6 mice [1] (H&E femurs) is given as “Elevated bone marrow cellularity”. Further, the “mucus thickness and crypt length” value with SPF C57BL/6 mice [1] (colon AB/PAS staining, versus control) is given as “significantly increased”. Besides, in the assay on SPF C57BL/6 mice [1] (flow cytometry, versus control recipients), the “total Sca1−cKit+ progenitor cells (GMP, CMP, MEP) in BM” value is “significant increase”. In addition, the Thirty-day survival rates in the assay on SPF C57BL/6 mice [1] (supplemented water 8 weeks, lethal dose TBI, control group 28%) is given as 79%. Moreover, in the assay with SPF C57BL/6 mice [1] (versus control group), the clinical scores result is listed as “lower clinical scores”.

Take `CC(=O)O` [acetate]: the “protection (survival, clinical scores)” value with SPF C57BL/6 mice [1] (supplemented water 8 weeks, lethal dose TBI) is “slight protection”.

As to `O=Cc1c[nH]c2ccccc12` [I3A, indole-3-carboxaldehyde], in the assay with SPF mice, the survival rates result is given as “around 75%”.

Regarding `O=C(O)c1cc(=O)c2ccccc2[nH]1` [KYNA, kynurenic acid], in the assay with SPF mice, the survival rates entry is given as “around 75%”.

In turn, `CCCC(=O)O` [butyrate] registered a thirty-day survival rate in the assay with SPF C57BL/6 mice [2] of 68%.
